Where a chain is given by its changes, count along the chain named. “Also recorded” adds a separate entry of the source. One block for each compound: values may come before it.
Experiments:
[1] = biological target: b2-adrenergic receptor (b2AR) (Homo sapiens, UniProt P07550); experiment: cAMP production mediated by b2AR agonist isoproterenol; type: cell-based; conditions: in response to isoproterenol
[2] = biological target: vasopressin type 2 receptor (V2R) (Homo sapiens, UniProt P30518); experiment: vasopressin-mediated cAMP production; type: cell-based
[3] = biological target: T1, human PTH type 1 receptor (hPTHR) (Homo sapiens, UniProt Q03431); experiment: Concentration-response curves for cAMP (GloSensor) by PTH with Pitt molecules; type: cell-based; conditions: range of Pitt concentrations
T1 construct: expressed in transfected cells
T1 sequence (Q03431 27-593): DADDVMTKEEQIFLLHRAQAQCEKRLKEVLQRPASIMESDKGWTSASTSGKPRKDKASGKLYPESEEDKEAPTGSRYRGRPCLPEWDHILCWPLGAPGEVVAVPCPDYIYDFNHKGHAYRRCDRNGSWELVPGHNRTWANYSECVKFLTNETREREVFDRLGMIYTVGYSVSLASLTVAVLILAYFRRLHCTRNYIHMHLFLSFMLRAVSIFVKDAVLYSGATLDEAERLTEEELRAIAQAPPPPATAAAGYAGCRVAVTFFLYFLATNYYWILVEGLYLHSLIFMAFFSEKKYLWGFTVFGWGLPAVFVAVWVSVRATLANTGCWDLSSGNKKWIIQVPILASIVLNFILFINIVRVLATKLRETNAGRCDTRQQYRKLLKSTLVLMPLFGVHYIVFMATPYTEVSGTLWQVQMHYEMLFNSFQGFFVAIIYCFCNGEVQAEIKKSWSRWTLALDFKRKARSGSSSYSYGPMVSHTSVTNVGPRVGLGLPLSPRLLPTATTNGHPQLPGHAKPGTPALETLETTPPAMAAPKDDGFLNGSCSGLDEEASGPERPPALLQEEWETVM

[4] = biological target: T2, PTHR association with G proteins (mGs, mGq) (Homo sapiens, UniProt Q03431); experiment: FRET time courses of PTHR-CFP interaction with mini-Gs and mini-Gq; type: cell-based; conditions: PTH-induced
T2 construct: expressed in transfected cells
T2 sequence (Q03431 27-593): T1 sequence (Q03431 27-593)
T2 sequence (P01270 32-65 partner limits assumed): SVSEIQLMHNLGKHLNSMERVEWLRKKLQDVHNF

[5] = test system: recombinant PTHR; experiment: Intracellular Ca2+ release (Fluo-4) in response to PTH; type: cell-based; conditions: 100 nM PTH, 10 μM Pitt molecules
[6] = biological target: T3, human PTHR mutant E180A (Homo sapiens, UniProt Q03431, E180A); experiment: PTH-induced cAMP signaling of receptor mutant E180A; type: cell-based
T3 construct: HA
T3 sequence (Q03431 27-593 E180A): T1 sequence (Q03431 27-593) with E154A

[7] = biological target: T4, human PTHR mutant R181A (Homo sapiens, UniProt Q03431, R181A); experiment: PTH-induced cAMP signaling of receptor mutant R181A; type: cell-based
T4 construct: HA
T4 sequence (Q03431 27-593 R181A): T1 sequence (Q03431 27-593) with R155A

[8] = test system: C57BL/6 mice
[9] = biological target: T5, PTHR (Homo sapiens, UniProt Q03431); experiment: PTH-induced cAMP time courses (FRET sensor) in HEK293 cells stably expressing PTHR; type: cell-based; parameters: expressed in transfected cells; conditions: for inhibition of PTH-mediated cAMP production compared with Pitt12: 10 μM compound
T5 sequence (Q03431 27-593): T1 sequence (Q03431 27-593)

[10] = biological target: T5, PTHR; experiment: Radioligand receptor binding, membranes of GP-2.3 cells; parameters: expressed in transfected cells; host or cells: HEK-293-derived GP-2.3 cells (membranes)
[11] = biological target: T5, PTHR; conditions: cited from earlier work
[12] = 20 μmol/kg, 3 h after injection

Chain of vasopressin type 2 receptor (V2R) (P30518 whole entry, species assumed): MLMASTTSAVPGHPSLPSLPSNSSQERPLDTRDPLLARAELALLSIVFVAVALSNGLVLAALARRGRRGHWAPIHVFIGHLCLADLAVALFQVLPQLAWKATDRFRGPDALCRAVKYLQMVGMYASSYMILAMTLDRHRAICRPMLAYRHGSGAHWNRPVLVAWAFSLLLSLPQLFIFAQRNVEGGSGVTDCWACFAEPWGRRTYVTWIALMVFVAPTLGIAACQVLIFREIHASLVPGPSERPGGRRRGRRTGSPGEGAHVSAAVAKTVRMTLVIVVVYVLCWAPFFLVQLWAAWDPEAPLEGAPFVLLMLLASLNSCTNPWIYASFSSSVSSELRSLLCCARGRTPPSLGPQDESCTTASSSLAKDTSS
Chain of b2-adrenergic receptor (b2AR) (P07550 whole entry, species assumed): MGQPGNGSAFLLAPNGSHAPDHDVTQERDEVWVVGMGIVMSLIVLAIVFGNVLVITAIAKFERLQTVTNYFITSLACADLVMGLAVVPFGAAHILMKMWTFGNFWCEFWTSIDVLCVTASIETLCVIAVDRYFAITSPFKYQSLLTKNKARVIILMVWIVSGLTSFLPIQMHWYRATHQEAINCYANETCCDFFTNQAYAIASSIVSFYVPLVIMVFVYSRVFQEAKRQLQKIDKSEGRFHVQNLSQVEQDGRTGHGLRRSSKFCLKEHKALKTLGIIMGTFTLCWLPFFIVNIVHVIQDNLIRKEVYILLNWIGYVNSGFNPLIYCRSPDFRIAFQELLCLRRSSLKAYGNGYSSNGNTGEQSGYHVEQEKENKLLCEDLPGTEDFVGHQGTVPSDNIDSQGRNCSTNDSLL

SMILES: COc1ccc([C@@H]2CN(C(=O)OCC3c4ccccc4-c4ccccc43)C[C@H]2C(=O)O)cc1 [Pitt12]
- effect on β2AR-mediated cAMP production [1]: no effect
- effect on vasopressin-mediated cAMP [2]: lack of effect
- effect on efficacy (Emax) of PTH to mediate cAMP increase [3]: blocked cAMP production by PTH; also recorded: marked reduction in efficacy
- G proteins association with the receptor [4]: decrease in both the kinetics and magnitude
- PTH-mediated release of stored intracellular Ca2+ [5]: noticeable reduction
- sensitivity of E180A mutant to modulation of PTH-induced cAMP [6]: lost their ability to respond to negative modulation
- sensitivity of R181A mutant to modulation of PTH-induced cAMP [7]: lost their ability to respond to negative modulation
- serum Ca2+ (sCa2+) level, compound alone [8, 12]: significantly reduced
- serum phosphate (sPi) level, compound alone [8, 12]: trend of reducing
- BUN/creatine ratio (kidney function and hydration status) ([8]; mouse, in vivo): lack of significant changes
- alteration of plasma membrane cAMP ([9]; 1 nM PTH): ≈ 30%
- reduction of endosomal cAMP production ([9]; 1 nM PTH): ≈ 70%
- effect on PTH-induced cAMP production (AUC of time course) ([9]; 1 nM PTH co-applied with 10 μM compound, HEK293-PTHR): distinguishably high potential to elicit negative effects
- sustained cAMP response on blockade of receptor internalization ([9]; cells expressing DynK44A, PTH with Pitt coapplied): moderately affected
- inhibitory binding constant (Ki), RG state ([10]; G-protein coupled (RG) state): in the μM range
- inhibitory binding constant (Ki), R0 state ([10]; G-protein uncoupled (R0) state, with GTPgS): in the μM range

SMILES: O=C(O)[C@@H]1CN(C(=O)OCC2c3ccccc3-c3ccccc32)C[C@H]1c1ccccc1 [Pitt41]
- inhibition of PTH-mediated cAMP production compared with Pitt12 ([9]; HEK293-PTHR): more efficacious than Pitt12

- inhibition of PTH-mediated cAMP production compared with Pitt12 ([9]; HEK293-PTHR): more efficacious than Pitt12
SMILES: Cc1ccc([C@@H]2CN(C(=O)OCC3c4ccccc4-c4ccccc43)C[C@H]2C(=O)O)cc1 [Pitt42]

SMILES: CCCCn1c(O)c(C(=N)N)c(=O)n(CCCC)c1=O [AH-3960]
- mode of action at PTHR [11]: weak agonist

SMILES: Cc1cc(N2C(=O)NC(=O)C2(C)C)cc(C)c1CCS(=O)(=O)N1CCC2(CC1)N=C(c1ccc(OC(F)(F)F)cc1)NC2=O [PCO371]
- mode of action at PTHR [11]: orthosteric agonist

Source: patent US20240156779A1, “SMALL MOLECULE ALLOSTERIC MODULATORS OF CLASS B GPCR, THE PTHR, AND METHOD TO IDENTIFY THEM” (University of Pittsburgh - Of the Commonwealth System of …, priority 2021, published 2024)
